Measurements: the supplement of paper PMC13380429

Assays:
Settings in all cases: 72 h
HepG2 [1] = assay: drug sensitivity score (DSS) for viability; higher = more toxic; extreme values may be limits of the assay
Vero E6 [2] = assay: as above
Caco-2 [3] = assay: as above
U2OS [4] = assay: as above
Calu-3 [5] = assay: as above
HepG2 [6] = assay: cell viability relative to DMSO; higher = less toxic
Vero E6 [7] = assay: as above
Caco-2 [8] = assay: as above
U2OS [9] = assay: as above
Calu-3 [10] = assay: as above
HepG2 [11] = assay: relative viability EC50 (midpoint between 100% and the lowest measured viability); higher = less toxic
Vero E6 [12] = assay: as above
Caco-2 [13] = assay: as above
U2OS [14] = assay: as above
Calu-3 [15] = assay: as above

Structure (SMILES) | drug sensitivity score (HepG2 [1]) | drug sensitivity score (Vero E6 [2]) | drug sensitivity score (Caco-2 [3]) | drug sensitivity score (U2OS [4]) | drug sensitivity score (Calu-3 [5]) | cell viability (HepG2 [6]; 1 nM) [%] | cell viability (HepG2 [6]; 10 nM) [%] | cell viability (HepG2 [6]; 100 nM) [%] | cell viability (HepG2 [6]; 1000 nM) [%] | cell viability (HepG2 [6]; 10000 nM) [%] | cell viability (Vero E6 [7]; 1 nM) [%] | cell viability (Vero E6 [7]; 10 nM) [%] | cell viability (Vero E6 [7]; 100 nM) [%] | cell viability (Vero E6 [7]; 1000 nM) [%] | cell viability (Vero E6 [7]; 10000 nM) [%] | cell viability (Caco-2 [8]; 1 nM) [%] | cell viability (Caco-2 [8]; 10 nM) [%] | cell viability (Caco-2 [8]; 100 nM) [%] | cell viability (Caco-2 [8]; 1000 nM) [%] | cell viability (Caco-2 [8]; 10000 nM) [%] | cell viability (U2OS [9]; 1 nM) [%] | cell viability (U2OS [9]; 10 nM) [%] | cell viability (U2OS [9]; 100 nM) [%] | cell viability (U2OS [9]; 1000 nM) [%] | cell viability (U2OS [9]; 10000 nM) [%] | cell viability (Calu-3 [10]; 1 nM) [%] | cell viability (Calu-3 [10]; 10 nM) [%] | cell viability (Calu-3 [10]; 100 nM) [%] | cell viability (Calu-3 [10]; 1000 nM) [%] | cell viability (Calu-3 [10]; 10000 nM) [%] | relative viability EC50 (HepG2 [11]) [µM] | relative viability EC50 (Vero E6 [12]) [µM] | relative viability EC50 (Caco-2 [13]) [µM] | relative viability EC50 (U2OS [14]) [µM] | relative viability EC50 (Calu-3 [15]) [µM]
c1ccc(C(NCCNC(c2ccccc2)c2ccccc2)c2ccccc2)cc1 [AMN-082] | 0.2 | 0 | 0 | 0 | 0 | 103 | 92.4 | 108 | 98.9 | 87.4 | 104 | 95 | 95 | 93.6 | 114 | 98.9 | 104 | 96.5 | 94.8 | 94.8 | 96.5 | 97.8 | 96.7 | 105 | 93.8 | 99 | 97.7 | 96.9 | 95.7 | 92.2 | > 10 | > 10 | > 10 | > 10 | > 10
COc1ccccc1OCC(O)CO (stereo not given) [guaifenesin] | 0 | 0 | 0 | 0 | 0 | 100 | 99.8 | 98.7 | 103 | 94.7 | 105 | 106 | 105 | 105 | 99.5 | 102 | 84.5 | 101 | 91.2 | 99.5 | 105 | 98.8 | 97 | 97.2 | 100 | 99.2 | 105 | 101 | 108 | 95.2 | > 10 | > 10 | > 10 | > 10 | > 10
Cc1ccc(/C(=C\CN2CCCC2)c2cccc(/C=C/C(=O)O)n2)cc1 [acrivastine] | 0 | 0 | 0 | 0 | 0 | 102 | 98.2 | 102 | 98.3 | 95.6 | 98.1 | 87.9 | 99.8 | 85.3 | 112 | 87.6 | 92.3 | 95.4 | 86.8 | 115 | 100 | 103 | 98.4 | 102 | 103 | 98.2 | 98.1 | 104 | 116 | 99.1 | > 10 | > 10 | > 10 | > 10 | > 10
CCCCCCCCCCCCCCCC[n+]1ccn(Cc2ccccc2)c1C [NH125] | 13.6 | 8 | 10.5 | 10.7 | 7 | 96.3 | 106 | 97.2 | 32.6 | 0 | 104 | 106 | 99.5 | 85.2 | 0.3 | 100 | 92.4 | 97 | 59.9 | 0.8 | 105 | 93.7 | 95.9 | 57.1 | 0.1 | 99.2 | 99.1 | 89.7 | 82.1 | 23.3 | 0.682 | 1.99 | 1.2 | 1.16 | 1.64
O=C(O)/C=C1\CCCc2ccccc2[C@H]1O (racemic) [NCS-382] | 0.1 | 0 | 0 | 0 | 0 | 108 | 96.5 | 102 | 99.1 | 87.2 | 104 | 97.2 | 103 | 99.1 | 101 | 98.6 | 99.3 | 91.8 | 97 | 88.7 | 96.7 | 102 | 96 | 102 | 97.2 | 93.4 | 95.3 | 99.3 | 95.5 | 101 | > 10 | > 10 | > 10 | > 10 | > 10
CCN[C@H]1CN(CCCOC)S(=O)(=O)c2sc(S(N)(=O)=O)cc21 [brinzolamide] | 0 | 0 | 0 | 0 | 0 | 100 | 118 | 101 | 110 | 112 | 94.4 | 99.7 | 96.2 | 85.9 | 102 | 89.1 | 95.2 | 99.3 | 104 | 106 | 96.6 | 95.4 | 102 | 106 | 99.9 | 96.2 | 91.8 | 101 | 112 | 102 | > 10 | > 10 | > 10 | > 10 | > 10
Cc1ccc(-c2cn3c4c(sc3n2)CCCC4)cc1 [pifithrin-cyclic] | 0 | 0 | 0 | 0 | 0 | 105 | 99.1 | 105 | 108 | 91.7 | 119 | 96.5 | 109 | 102 | 97.1 | 104 | 93 | 91.2 | 105 | 92.9 | 102 | 101 | 101 | 102 | 98.5 | 98.3 | 105 | 100 | 109 | 107 | > 10 | > 10 | > 10 | > 10 | > 10
CCOC(=O)[C@@](C)(N)Cc1ccc(O)c(O)c1 [methyldopate] | 0 | 0 | 0 | 0 | 0 | 95.7 | 96.4 | 97.4 | 97.4 | 90.9 | 99.6 | 98.4 | 97.4 | 107 | 97.7 | 103 | 101 | 100 | 103 | 88.4 | 103 | 98.4 | 101 | 102 | 89.3 | 91.4 | 97.1 | 101 | 102 | 92.5 | > 10 | > 10 | > 10 | > 10 | > 10
O=S(=O)(O)c1cc(O)ccc1O [etamsylate] | 0 | 0 | 0 | 0 | 0 | 107 | 105 | 110 | 108 | 97.8 | 96.2 | 94.5 | 104 | 94.5 | 106 | 89.7 | 100 | 91 | 98.8 | 92.4 | 92.5 | 98.3 | 95.7 | 99 | 104 | 95.6 | 100 | 106 | 95 | 95.3 | > 10 | > 10 | > 10 | > 10 | > 10
COc1c2ccoc2cc2oc(=O)ccc12 [bergapten] | 0 | 0.6 | 0 | 0 | 0 | 95.7 | 85.8 | 90 | 102 | 96.3 | 103 | 105 | 99.8 | 98.4 | 82 | 82.4 | 94.1 | 94.3 | 99.4 | 88.3 | 95.4 | 106 | 93.2 | 97.4 | 102 | 105 | 119 | 108 | 103 | 99 | > 10 | > 10 | > 10 | > 10 | > 10
C=C(C)[C@@H]1CC[C@]2(C(=O)O)CC[C@]3(C)[C@H](CC[C@@H]4[C@@]5(C)CC[C@H](OC(=O)CC(C)(C)C(=O)O)C(C)(C)[C@@H]5CC[C@]43C)[C@@H]12 [bevirimat-dimeglumine] | 0 | 0 | 0 | 0 | 0 | 91.3 | 99.5 | 103 | 94.1 | 96.7 | 96.8 | 103 | 96.9 | 94.7 | 102 | 92 | 95.6 | 94.1 | 102 | 94.9 | 99.4 | 98.5 | 99.6 | 98.2 | 96.8 | 99.1 | 103 | 102 | 92.9 | 110 | > 10 | > 10 | > 10 | > 10 | > 10
O=C(Nc1cc(Cl)cc(Cl)c1O)c1c(O)c(Cl)cc(Cl)c1Cl [oxyclozanide] | 0 | 0 | 0 | 0 | 0 | 105 | 99.2 | 96.4 | 98 | 101 | 95 | 98.6 | 96.2 | 101 | 95.4 | 98.4 | 106 | 91.7 | 91.9 | 97.4 | 98.7 | 97.6 | 97.8 | 100 | 97.2 | 107 | 90.4 | 104 | 88.7 | 103 | > 10 | > 10 | > 10 | > 10 | > 10
O=C1C2C=Nc3ccccc3C2=NN1c1ccc(Cl)cc1 (stereo not given) [CGS-9896] | 0 | 0 | 0.6 | 0 | 0 | 97.1 | 88.6 | 91 | 94.1 | 102 | 99.8 | 103 | 92.6 | 97.9 | 95.8 | 103 | 101 | 94.2 | 93 | 82.7 | 95.6 | 100 | 91.1 | 94 | 91.3 | 93.7 | 104 | 87.9 | 95.8 | 103 | > 10 | > 10 | > 10 | > 10 | > 10
CN(C)CCCSC(=N)N [dimaprit] | 0 | 0 | 0 | 0 | 0 | 99 | 106 | 99.1 | 104 | 93.2 | 99.9 | 98.8 | 103 | 100 | 96.2 | 99 | 102 | 93.9 | 96.3 | 97.4 | 98.5 | 103 | 95.1 | 96.2 | 96.8 | 109 | 103 | 109 | 99.1 | 96.7 | > 10 | > 10 | > 10 | > 10 | > 10
